Assay results: patent US20250179032A1, “HETEROCYCLIC INHIBITORS OF GLUT9 FOR TREATMENT OF DISEASE” (HORIZON THERAPEUTICS IRELAND DAC, priority 2022, published 2025)
Like-named read-outs stand apart in the source and are kept apart here.

Target: T1, H. sapiens SLC2A9 variant 2 (GLUT9B) (Homo sapiens, UniProt Q9NRM0)
T1 sequence (Q9NRM0 1-511 isoform Q9NRM0-2): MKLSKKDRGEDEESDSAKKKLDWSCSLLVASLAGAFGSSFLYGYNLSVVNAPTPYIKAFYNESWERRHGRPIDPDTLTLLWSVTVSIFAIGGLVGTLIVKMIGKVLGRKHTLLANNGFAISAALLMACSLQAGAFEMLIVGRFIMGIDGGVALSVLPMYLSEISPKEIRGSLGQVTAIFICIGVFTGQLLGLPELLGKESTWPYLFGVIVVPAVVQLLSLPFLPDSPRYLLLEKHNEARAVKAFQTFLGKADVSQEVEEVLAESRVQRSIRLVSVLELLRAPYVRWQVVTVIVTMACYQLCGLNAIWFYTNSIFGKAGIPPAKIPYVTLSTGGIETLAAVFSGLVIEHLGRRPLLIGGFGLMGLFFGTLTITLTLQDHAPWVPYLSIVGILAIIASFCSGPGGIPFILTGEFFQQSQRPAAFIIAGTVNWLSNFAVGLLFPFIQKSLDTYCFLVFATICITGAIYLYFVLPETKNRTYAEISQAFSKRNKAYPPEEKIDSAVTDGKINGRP
Assay: GLUT9 functional assay: uric acid uptake in HEK293T cells, allantoin formation by MS/MS as proxy of GLUT9B inhibition
Format: cell-based
Details: HEK293T cells stably expressing GLUT9B and transiently A. oryzae uricase, uric acid 0.3 mM, 37° C.
Procedure, shortened: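 Inhibition of GLUT9B-mediated urate uptake read as reduced allantoin formation, measured by MS/MS against allantoin standards in HEK293T matrix with log-logistic fitting. Stable GLUT9B HEK293T cells carrying transfected A. oryzae uricase were incubated 15 or 60 min at 37° C with uric acid at Km (0.3 mM), pH 7.4 gluconate buffer.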

[1] = 15 minute assay, read-out: 15 min IC50
[2] = 60 minute assay, read-out: 60 min IC50

Compound | IC50 [1] | IC50 [2]
O=C(O)C1CCN(c2nc(CCCC(F)(F)F)cnc2-c2cnc3occc3c2)CC1 [Compound 116, 1-(3-(furo[2,3-b]pyridin-5-yl)-6-(4,4,4-trifluorobutyl)pyrazin-2-yl)piperidine-4-carboxylic acid] | < 500 nM | –
COC1(C(=O)O)CCN(c2nc(CCC(F)(F)F)cnc2-c2cc(F)c3occc3c2)CC1 [Compound 92, 1-(3-(7-fluorobenzofuran-5-yl)-6-(3,3,3-trifluoropropyl)pyrazin-2-yl)-4-methoxypiperidine-4-carboxylic acid] | 500 to 2000 nM | –
CCCCc1cnc(-c2ccc(OC)cc2)c(N2CCC(F)(C(=O)O)CC2)n1 [Compound 10, 1-(6-Butyl-3-(4-Methoxyphenyl)Pyrazin-2-yl)-4-Fluoropiperidine-4-carboxylic acid] | < 500 nM | –
O=S1NC(C2CCN(c3nc(COCC(F)(F)F)cnc3-c3cc(F)c4occc4c3)CC2)=NO1 (stereo not drawn) [Compound 83, 4-(1-(3-(7-fluorobenzofuran-5-yl)-6-((2,2,2-trifluoroethoxy)methyl)pyrazin-2-yl)piperidin-4-yl)-3H-1,2,3,5-oxathiadiazole 2-oxide] | 500 to 2000 nM | –
CCCCc1cnc(-c2cc(F)c3occc3c2)c(N2CCC(C(=O)O)CC2)n1 [Compound 9, 1-(6-Butyl-3-(7-Fluorobenzofuran-5-yl)Pyrazin-2-yl)Piperidine-4-carboxylic acid] | < 500 nM | –
O=C(O)C1CCN(c2nc(CCC(F)(F)F)cnc2-c2ccc(OC(F)F)cc2)CC1 [Compound 163, 1-(3-(4-(difluoromethoxy)phenyl)-6-(3,3,3-trifluoropropyl)pyrazin-2-yl)piperidine-4-carboxylic acid] | 500 to 2000 nM | –
COc1cc(-c2ncc(CCC(F)(F)F)nc2N2CCC(C(=O)O)CC2)ccc1Cl [Compound 62, 1-(3-(4-chloro-3-methoxyphenyl)-6-(3,3,3-trifluoropropyl)pyrazin-2-yl)piperidine-4-carboxylic acid] | > 2000 nM | –
O=C(O)CCC1CN(c2nc(CCC(F)(F)F)cnc2-c2cc(F)c3occc3c2)C1 [Compound 89, 3-(1-(3-(7-fluorobenzofuran-5-yl)-6-(3,3,3-trifluoropropyl)pyrazin-2-yl)azetidin-3-yl)propanoic acid] | 500 to 2000 nM | –
O=c1[nH]c(C2CCN(c3nc(COCC(F)(F)F)cnc3-c3cc(F)c4occc4c3)CC2)ns1 [Compound 81, 3-(1-(3-(7-fluorobenzofuran-5-yl)-6-((2,2,2-trifluoroethoxy)methyl)pyrazin-2-yl)piperidin-4-yl)-1,2,4-thiadiazol-5(4H)-one] | 500 to 2000 nM | –
COCCCc1cnc(-c2cc(F)c3occc3c2)c(N2CCC(C(=O)O)C3CC32)n1 (stereo not drawn) [Compound 186, 2-(3-(7-fluorobenzofuran-5-yl)-6-(3-methoxypropyl)pyrazin-2-yl)-2-azabicyclo[4.1.0]heptane-5-carboxylic acid] | – | < 500 nM
O=C(O)C1CCN(c2nc(CCCC(F)F)cnc2-c2cc(F)c3occc3c2)CC1 [Compound 188, 1-(6-(4,4-difluorobutyl)-3-(7-fluorobenzofuran-5-yl)pyrazin-2-yl)piperidine-4-carboxylic acid] | – | < 500 nM
CCCCc1cnc(-c2ccc(OC)cc2)c(N2CCC(C(=O)O)C2)n1 (stereo not drawn) [Compound 12, 1-(6-Butyl-3-(4-Methoxyphenyl)Pyrazin-2-yl)Pyrrolidine-3-Carboxylic acid] | > 2000 nM | –
COCCCc1cnc(-c2ccc3nccn3c2)c(N2CCC(C(=O)O)CC2)n1 [Compound 205, 1-(3-(imidazo[1,2-a]pyridin-6-yl)-6-(3-methoxypropyl)pyrazin-2-yl)piperidine-4-carboxylic acid] | – | > 2000 nM
COc1ccc(-c2ncc(CCC(F)(F)C(F)(F)F)nc2N2CCC(C(=O)O)CC2)cc1 [Compound 30, 1-(3-(4-methoxyphenyl)-6-(3,3,4,4,4-pentafluorobutyl)pyrazin-2-yl)piperidine-4-carboxylic acid] | < 500 nM | –
COCCCCCc1cnc(-c2cc(F)c3occc3c2)c(N2CCC(C(=O)O)CC2)n1 [Compound 228, 1-(3-(7-fluorobenzofuran-5-yl)-6-(5-methoxypentyl)pyrazin-2-yl)piperidine-4-carboxylic acid] | – | < 500 nM
